Measurements as given in US10626113B2, “Phosphodiesterase inhibitors and uses thereof” (THE TRUSTEES OF COLUMBIA UNIVERSITY IN THE CITY OF NEW YORK, priority 2012, dated 2020).

Legend:
[1] = test system: APP/PS1 mice; assay: Preliminary studies with sildenafil in APP/PS1 mice; type: in vivo; settings: persist beyond the administration of the inhibitor
Description: Slices from transgenic mice treated with the compound had 226.23%±6.72 potentiation compared to 164.12%±10.37 in slices from vehicle-treated transgenic mice (FIG. 3). Residual potentiation recorded during the last 5 minutes of a 2 hr recording following tetanic stimulation of the Schaffer collateral fibers at the CA3-CA1 connection.

[2] = test system: PDE6; assay: PDE6 inhibition assay (fluorescence polarization); type: biochemical; settings: Table 1
Description: (§1) The enzymatic reactions were conducted at room temperature for 60 minutes in a 50 μl mixture containing PDE assay buffer, 100 nM FAM-cAMP or 100 nM FAM-cGMP, a PDE enzyme, and the test compound. After the enzymatic reaction, 100 μl of a binding solution (1:100 dilution of the binding agent with the binding agent diluent) was added to each reaction and the reaction was performed at room temperature for 60 minutes. Fluorescence intensity was measured at an excitation of 485 nm and an emission of 528 nm using a Tecan Infinite M1000 microplate reader.
(§2) Fluorescence intensity is converted to fluorescence polarization using the Tecan Magellan6 software. The fluorescence polarization data were analyzed using the computer software, Graphpad Prism. The fluorescence polarization (FPt) in absence of the compound in each data set was defined as 100% activity. In the absence of PDE and the compound, the value of fluorescent polarization (FPb) in each data set was defined as 0% activity. The percent activity in the presence of the compound was calculated according to the following equation: % activity=(FP−FPb)/(FPt−FPb)×100%, where FP=the fluorescence polarization in the presence of the compound.
The IC50 value was determined by the concentration causing a half-maximal percent activity.

[3] = target: PDE5 (Homo sapiens (Human), UniProt O76074); assay: PDE5 inhibition assay (BPS PDE assay kit, fluorescence polarization); type: biochemical
Description: Materials and Methods: PDE5 inhibition was assayed at BPS Bioscience (San Diego, Calif.) using BPS PDE assay kits (BPS Catalog number 60300, enzyme lot 090810). Test compounds were supplied as liquid solutions of 10 mM concentration in DMSO. Sildenafil, used as a standard was dissolved in DMSO. Intermediate dilutions were 10% DMSO in PDE assay buffer and tests at ranges from 0.1 to 100 nM. 0.1 ng of enzyme was used per reaction, and the substrate was 100 nM FAM-cGMP.
as §1, with “Assay conditions: A series of dilutions of the test compounds were prepared with 10% DMSO in assay buffer and 5 μl of the dilution was added to a 50 μl reaction so that the final concentration of DMSO is 1% in all of reactions. The” for “The”
as §2, with “Data analysis: PDE activity assays were performed in duplicate at each concentration. Fluorescence” for “Fluorescence”
The values of % activity versus a series of compound concentrations were then plotted using non-linear regression analysis of Sigmoidal dose-response curve generated with the equation Y=B+(T−B)/1+10^((LogEC50-X)×Hill Slope), where Y=percent activity, B=minimum percent activity, T=maximum percent activity, X=logarithm of compound and Hill Slope=slope factor or Hill coefficient. The IC50 value was determined by the concentration causing a half-maximal percent activity.

SMILES | IC50 [2] | IC50 ([3]; Table 1, 100 nM FAM-cGMP) | effects on synaptic and cognitive abnormalities in APP/PS1 mice [1] | IC50 ([3]; Table 3)
CCCc1nn(C)c2c(=O)[nH]c(-c3cc(S(=O)(=O)N4CCN(C)CC4)ccc3OCC)nc12 [sildenafil] |  |  | prolonged beneficial effects | 
CCc1cc(C#N)cc2c(NCc3ccc(OC)c(Cl)c3)c3c(nc12)CCN(C)C3 [D, 10-[(3-chloro-4-methoxybenzyl)amino]-6-ethyl-2-methyl-1,2,3,4-tetrahydrobenzo[b][1,6]naphthyridine-8-carbonitrile] | 30 nM | 0.07 nM |  | 
COc1ccc(CNc2c3c(nc4ccc(Br)cc24)CCN(C)C3)cc1Cl [A, 8-bromo-N-(3-chloro-4-methoxybenzyl)-2-methyl-1,2,3,4-tetrahydrobenzo[b][1,6]naphthyridin-10-amine] |  | 21.6 nM |  | 
[2H]C([2H])(Nc1c2c(nc3ccc(C#N)cc13)CCN(C(C)=O)C2)c1ccc(OC)c(Cl)c1 [M] |  |  |  | 0.044 nM

Continued, in another order:

IC50 [2] | IC50 ([3]; Table 1, 100 nM FAM-cGMP) | SMILES | effects on synaptic and cognitive abnormalities in APP/PS1 mice [1] | IC50 ([3]; Table 3)
> 100 nM | 1.55 nM | COc1ccc(CNc2c3c(nc4ccc(C#N)cc24)CCNC3)cc1Cl [G, 10-((3-chloro-4-methoxybenzyl)amino)-1,2,3,4-tetrahydrobenzo[b][1,6]naphthyridine-8-carbonitrile] |  | 
 | 5.4 nM | COc1ccc(CNc2c3c(nc4ccc(Br)cc24)CCNC3)cc1Cl [F, 8-bromo-N-(3-chloro-4-methoxybenzyl)-1,2,3,4-tetrahydrobenzo[b][1,6]naphthyridin-10-amine] |  | 
6620 nM | 43.8 nM | COc1ccc(CNc2c3c(nc4ccc(C#N)cc24)NCCNC3=O)cc1Cl [E, 6-[(3-chloro-4-methoxybenzyl)amino]-5-oxo-2,3,4,5-tetrahydro-1H-[1,4]diazepino[5,6-b]quinoline-8-carbonitrile] |  | 
